Laboratory results published in the supplement of paper PMC10477900.
pIC50: −log10 of the molar value.

How the values were obtained:
HCT116 [1] = settings: 72 h
Experimental: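 HCT116 control and MTA1-KO (CRISPR) HCT116 cells were seeded in 384-well plates (800 cells/well), treated 16 h later with 237 metabolism-related anticancer drugs at five doses (10 uM, 2 uM, 400 nM, 80 nM, 16 nM) for 72 h, two replicates; viability by CCK8. Values are % inhibition of viability relative to untreated cells, plus fitted IC50.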

HCT116 [2] = assay: viability inhibition vs untreated; higher = more cytotoxic; settings: 72 h

Structure (SMILES)	pIC50 (HCT116 [1]; genotype: MTA1-KO)	pIC50 (HCT116 [1]; genotype: control)	viability inhibition (HCT116 [2]; genotype: MTA1-KO, 16 nM)	viability inhibition (HCT116 [2]; genotype: MTA1-KO, 80 nM)	viability inhibition (HCT116 [2]; genotype: MTA1-KO, 400 nM)	viability inhibition (HCT116 [2]; genotype: MTA1-KO, 2000 nM)	viability inhibition (HCT116 [2]; genotype: MTA1-KO, 10000 nM)	viability inhibition (HCT116 [2]; genotype: control, 16 nM)	viability inhibition (HCT116 [2]; genotype: control, 80 nM)	viability inhibition (HCT116 [2]; genotype: control, 400 nM)	viability inhibition (HCT116 [2]; genotype: control, 2000 nM)	viability inhibition (HCT116 [2]; genotype: control, 10000 nM)
C/C(=C1/C(=O)Nc2ccc(NC(N)=O)cc21)c1ccc[nH]1 [BX517]	5.14	5.16	-1.27%	-4.96%	-15%	-7.43%	62.3%	7.33%	-2.63%	0.244%	10.4%	67.6%
Nc1nc2[nH]cc(CCc3ccc(C(=O)N[C@@H](CCC(=O)O)C(=O)O)cc3)c2c(=O)[nH]1 [Pemetrexed Disodium Hydrate]	5.77	< 5.00	-0.998%	0.351%	-2.35%	34.3%	60.9%	-14.7%	-8.65%	-11.7%	-6.77%	5.15%
O=C(Cc1cccc(OC(F)(F)F)c1)Nc1ccc(CCCCc2nnc(NC(=O)Cc3ccccn3)s2)nn1 [CB839]	< 5.00	< 5.00	-4.17%	2.28%	-14.1%	1.81%	3.54%	0.501%	13.6%	24%	20.5%	20.2%
CCN[C@H]1CN(CCCOC)S(=O)(=O)c2sc(S(N)(=O)=O)cc21 [Brinzolamide]	< 5.00	< 5.00	-13.1%	-25.7%	-24.4%	-29.9%	-25.2%	-12.4%	-11.9%	-8.93%	-15.3%	-13.6%
O=c1cc(-c2ccc(O)c(O)c2)oc2cc(O)cc(O)c12 [Luteolin]	< 5.00	< 5.00	-5.43%	-9.09%	-11.5%	-2.12%	7.81%	2.79%	2.36%	3.47%	12.7%	12.7%
O=C(O)C[C@H](O)C[C@H](O)/C=C/c1c(C2CC2)nc2ccccc2c1-c1ccc(F)cc1 [Pitavastatin calcium]	< 5.00	5.51	-24.4%	-25.7%	-30.7%	-23.8%	31%	11%	-0.547%	-0.73%	5.9%	75.5%
NS(=O)(=O)c1ccc(S(=O)(=O)Nc2cccc3c(Cl)c[nH]c23)cc1 [Indisulam]	6.89	6.35	-0.89%	30.5%	59.8%	90.3%	96.6%	-5.81%	-7.51%	10.8%	90.9%	90.2%
Cc1ccc2nc(N)[nH]c(=O)c2c1Sc1ccncc1 [Nolatrexed]	5.02	< 5.00	8.71%	2.94%	-1.21%	1.75%	76%	-21.6%	-20.5%	4.76%	-22.2%	-11.3%
CC1(C)O[C@@H]2[C@@H](CO[C@@]3(COS(N)(=O)=O)OC(C)(C)O[C@@H]23)O1 [Topiramate]	< 5.00	< 5.00	-4.79%	-13.2%	-12.6%	-13%	-6.53%	0.571%	-0.663%	3.41%	3.1%	12.4%
Nc1ncnc2c1ncn2[C@@H]1O[C@H](COP(=O)(O)O)[C@@H](O)[C@H]1O [Adenosine 5'-monophosphate monohydrate]	< 5.00	< 5.00	-22.7%	-25.1%	-20.2%	-18.3%	-15.5%	14.8%	5.2%	12.1%	10.3%	11.9%
Nc1ncnc2c1c(-c1cnc3[nH]ccc3c1)nn2C1CCCC1 [PP121]	6.17	6.06	14.3%	12.8%	43.5%	90.3%	111%	10.8%	16.8%	25.2%	86.4%	104%
O=c1cc(O)c(Cl)c[nH]1 [Gimeracil]	< 5.00	< 5.00	-16.5%	-10.4%	-7.69%	-8.52%	5.58%	-1.24%	-1.82%	-11.8%	-5.96%	-7.24%
O=c1oc2ccccc2c(O)c1Cc1c(O)c2ccccc2oc1=O [Dicumarol]	6.35	6.27	4.75%	8.83%	21.4%	67.8%	64.3%	10.4%	23.6%	22.5%	66.6%	65.9%
Cc1c(-c2cnccn2)ssc1=S [Oltipraz]	< 5.00	< 5.00	-30.8%	-24.9%	-26.7%	-26.6%	-33.9%	-15.3%	-6.71%	-20.1%	-19.1%	-6.16%
